Holding throughout (type): functional
Experiment [1] relates to A549. The experiment is described as follows: Cytotoxicity against human A549 cells. The following applies: for GI50: A549; for CC50: A549, read-out: pLC50 (converted); for TGI: A549, read-out: pTGI (converted).
Experiment [2] has as its system NCI-H522. The experiment is described as follows: Cytotoxicity against human NCI-H522 cells. The following applies: for TGI: read-out: pTGI (converted).
In experiment [3] the test system is NCI-H23. Kind of experiment: Cytotoxicity against human NCI-H23 cells. The following applies: for CC50: read-out: pLC50 (the source's name) (converted); for TGI: read-out: pTGI (converted).

Molecules are shown by their SMILES.

The results in this text go back to ChEMBL document CHEMBL1157139, “A structural analysis of the differential cytotoxicity of chemicals in the NCI-60 cancer cell lines” (2008).

A word on the GI50: it is the concentration giving 50% growth inhibition. Read a low GI50 as greater sensitivity of the cells.

In the case of `O=C(O)c1ccccn1` [2-PICOLINIC ACID], in experiment [1], the GI50 was 65.2 µM, the CC50 is above 100 µM and the TGI is 82 µM. Moreover, in experiment [2], the GI50 was 0.693 µM and the TGI is 1.05 µM. In experiment [3], halving of growth (GI50) required 61.8 µM, the CC50 was 88.5 µM and the TGI was 74 µM.
In the case of `C[C@@H]1C[C@@H]([C@H](O)CC2CC(=O)NC(=O)C2)C(=O)[C@@H](C)C1` [CYCLOHEXIMIDE], in experiment [1], the GI50 is above 100 µM, the CC50 was above 100 µM and the TGI is above 100 µM. Further, in experiment [2], the GI50 was above 100 µM and the TGI was above 100 µM. Moreover, in experiment [3], the GI50 is above 100 µM, the CC50 is above 100 µM and the TGI is above 100 µM.
